Each structure is given as a SMILES string.

By IC50 is commonly meant the concentration that gives 50% inhibition.

For experiment [1], the system named is U2-OS. The experiment in a line: cells. The settings on record: Homo sapiens, U2OS, 120 h, read-out: IC50 growth inhibition. Type of experiment: cell-based.
The subject of experiment [2] is Saos-2. Kind of experiment: cells. As to conditions: Homo sapiens, SAOS-2, 120 h, read-out: IC50 growth inhibition. Type of experiment: cell-based, human.
In experiment [3] the test system is MG-63. Kind of experiment: cells. As to conditions: Homo sapiens, MG-63, 120 h, read-out: IC50 growth inhibition. Type of experiment: cell-based.
Experiment [4] relates to MNNG/HOS. Kind of experiment: cells. It is filed as cell-based. The settings on record: 120 h, read-out: IC50 growth inhibition.
The subject of experiment [5] is KHOS/NP. Kind of experiment: cells. Type of experiment: cell-based. As to conditions: Homo sapiens, 120 h, read-out: IC50 growth inhibition.
Experiment [6] deals with several other osteosarcoma cell lines. Also on record: method as in PMID 23091447. The settings on record: concentrations of up to 20 μM; cited from earlier work.

Take `O=C(O)CCCc1ccc(N(CCCl)CCCl)cc1` [Chlorambucil, chlorambucil, reference compound]: the IC50 in experiment [1] stood at 9.59 ± 0.55 µM; in experiment [2], 7.53 ± 0.75 µM; in experiment [3], 13.1 ± 1.28 µM; in experiment [4], 12.1 ± 1.01 µM; in experiment [5], 9.25 ± 1.35 µM.

Take `COc1cc2ncnc(Nc3ccc(F)c(Cl)c3)c2cc1OCCCN1CCOCC1` [Gefitinib, gefitinib]: the “effect on viability of osteosarcoma cell lines” value in experiment [6] is recorded as “did not reduce the viability”.
